Key:
digital ulcers = experiment: randomized, double blind, placebo controlled clinical trial of diosmin on digital ulcers; assay type: in vivo, human
Experimental: To evaluate the effect of diosmin on Raynaud's and digital ulcers, a randomized, double blind, placebo controlled clinical trial was conducted. In this trial, subjects were randomized to receive either 600 mg of diosmin or matching placebo twice daily. The trial recorded improvement/healing of ulcers. Subjects with ulcers who were not on active ulcer therapy were required to have at least one stable or worsening digital ulcer for at least one month and subjects receiving ulcer therapy were required to have at least one stable or worsening ulcer on stable therapy for at least two months and therapy was required to remain constant for the duration of the trial.

[1] = system: leukocyte and endothelial cell adhesion molecules; settings: variety of ischemia/reperfusion models; cited from earlier work
hamster cheek pouch = settings: pretreatment with 2, 20, 80 and 160 mg/kg/d; ischemia/reperfusion; cited from earlier work
rabbit ear veins = settings: 300 mg/kg/d from 7 days before to 4 days after sclerotherapy; p<0.001; cited from earlier work
[2] = cited from earlier work
[3] = system: streptozotocin-induced diabetic hamster cheek pouch; settings: cited from earlier work

With COc1ccc(-c2cc(=O)c3c(O)cc(O[C@@H]4O[C@H](CO[C@@H]5O[C@@H](C)[C@H](O)[C@@H](O)[C@H]5O)[C@@H](O)[C@H](O)[C@H]4O)cc3o2)cc1O [diosmin, (7-[[6-O-(6-Deoxy-α-L-mannopyranosyl)-β-D-glucopyranosyl]oxy]-5-hydroxy-2-(3-hydroxy-4-methoxyphenyl)-4H-1-benzopyran-4-one)] the “Number of New Ulcers Appearing between Baseline and Week 4” value (digital ulcers; 600 mg diosmin twice daily, Week 4, all digital ulcers (including 9 ulcers in 4 non-scleroderma subjects)) was 14, the “Number of Ulcers Healed at Week 4 Relative to Baseline” value (digital ulcers; 600 mg twice daily, Week 4, healed/total ulcers, p 0.1251 vs placebo) was 18/43 and the “Number with >= 50% Improvement at Week 4 Relative to Baseline” value (digital ulcers; 600 mg twice daily, Week 4, improved/total ulcers, p 0.0905 vs placebo) was 23/43. For the same compound, the “% with >= 50% Improvement at Week 4 Relative to Baseline” value (digital ulcers; 600 mg twice daily, Week 4, p 0.0905 vs placebo) was “(53.5%)”, the “% of Ulcers Healed at Week 4 Relative to Baseline” value (digital ulcers; 600 mg twice daily, Week 4, p 0.1251 vs placebo) was “(41.9%)” and the “Number of Ulcers Healed at Week 8 Relative to Baseline” value (digital ulcers; 600 mg twice daily, Week 8, healed/total ulcers, p 0.0113 vs placebo) was 31/42. The “Number of Ulcers Healed at Week 8 Relative to Week 4” value (digital ulcers; 600 mg twice daily, Week 8, healed/total ulcers, p 0.0600 vs placebo) was 18/37, the “Number with >= 50% Improvement at Week 8 Relative to Baseline” value (digital ulcers; 600 mg twice daily, Week 8, improved/total ulcers, p 0.0018 vs placebo) was 39/42 and the “Number with >= 50% Improvement at Week 8 Relative to Week 4” value (digital ulcers; 600 mg twice daily, Week 8, improved/total ulcers, p 0.0207 vs placebo) was 25/37. The “% with >= 50% Improvement at Week 8 Relative to Baseline” value (digital ulcers; 600 mg twice daily, Week 8, p 0.0018 vs placebo) was “(92.9%)”, the “% of Ulcers Healed at Week 8 Relative to Baseline” value (digital ulcers; 600 mg twice daily, Week 8, p 0.0113 vs placebo) was “(73.8%)” and the “% with >= 50% Improvement at Week 8 Relative to Week 4” value (digital ulcers; 600 mg twice daily, Week 8, p 0.0207 vs placebo) was “(67.6%)”. The “% of Ulcers Healed at Week 8 Relative to Week 4” value (digital ulcers; 600 mg twice daily, Week 8, p 0.0600 vs placebo) was “(48.6%)”, the “overexpression of leukocyte and endothelial cell adhesion molecules” value [1] was “inhibit” and the “arteriolar vasodilation, reduction in flow velocity and decrease in functional capillary density” value (hamster cheek pouch) was “reversed all these changes towards normal in a dose dependent manner”. For the same compound, the functional capillary density (rabbit ear veins) was “preserved”, the “increase in venous and arteriolar diameter” value (rabbit ear veins) was “prevented” and the “number of adherent leukocytes” value (rabbit ear veins) was “reduced”. For the same compound, the “number of capillary leakage sites” value (rabbit ear veins) was “reduced”, the perivenous edema (rabbit ear veins) was “reduced” and the “form found in blood after oral ingestion” value [2] was “Diosmetin”. The “number of leukocytes adhering to the endothelium after reperfusion” value ([3]; after reperfusion following 30 minutes of ischemia) was “deceased as did the number of leukocytes adhering to the endothelium” and the “number of capillary leaks induced by each of the test articles, bradykinin, and LTB4” value ([3]; pretreatment with diosmin, diabetic hamster cheek pouch) was “significantly reduced”.

From patent publication US11844777B2, “Methods of treating autoimmune microvascular disorders” (PRIMUS PHARMACEUTICALS, INC., priority 2017, dated 2023)
